Data on 28 compounds can be found in US7553966B2, “Glucocorticoid mimetics, methods of making them, pharmaceutical compositions, and uses thereof” (Boehringer Ingelheim Pharmaceuticals, Inc., priority 2002, dated 2009).

SMILES strings stand for the structures.

This experiment concerns the target T1, human glucocorticoid receptor (GR) complex (Homo sapiens, UniProt P04150).
T1 construct: made in house; host or cells: insect expression system (baculovirus lysate)
T1 sequence (P04150 1-777): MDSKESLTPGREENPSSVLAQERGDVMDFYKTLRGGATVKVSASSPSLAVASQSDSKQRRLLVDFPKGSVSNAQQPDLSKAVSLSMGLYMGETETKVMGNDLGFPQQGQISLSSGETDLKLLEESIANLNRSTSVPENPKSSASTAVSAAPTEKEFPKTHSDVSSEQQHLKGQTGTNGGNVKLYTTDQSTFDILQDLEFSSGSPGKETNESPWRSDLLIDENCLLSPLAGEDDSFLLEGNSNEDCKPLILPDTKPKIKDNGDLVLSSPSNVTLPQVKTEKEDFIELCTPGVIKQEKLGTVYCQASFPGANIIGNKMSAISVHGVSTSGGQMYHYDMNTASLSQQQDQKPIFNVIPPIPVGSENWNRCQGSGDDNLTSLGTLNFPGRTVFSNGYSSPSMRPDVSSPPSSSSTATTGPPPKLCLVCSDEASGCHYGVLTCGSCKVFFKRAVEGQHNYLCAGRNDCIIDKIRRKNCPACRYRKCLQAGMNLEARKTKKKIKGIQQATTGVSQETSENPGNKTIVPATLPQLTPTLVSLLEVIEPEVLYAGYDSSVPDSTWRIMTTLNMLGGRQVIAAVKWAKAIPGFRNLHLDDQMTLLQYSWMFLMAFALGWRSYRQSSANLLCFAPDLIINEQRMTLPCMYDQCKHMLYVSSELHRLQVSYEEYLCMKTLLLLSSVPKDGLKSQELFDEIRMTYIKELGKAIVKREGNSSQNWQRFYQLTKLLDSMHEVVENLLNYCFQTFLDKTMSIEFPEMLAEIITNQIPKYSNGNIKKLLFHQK
Kind of experiment: Glucocorticoid Receptor Competitive Binding Assay (fluorescence polarization, TAMRA-labeled dexamethasone probe). The note with it: qualitative statement; competition with TAMRA-labeled dexamethasone. The method, then:
Compounds of the invention were evaluated for binding to the steroid receptor by a fluorescence polarization competitive binding assay.
A. Glucocorticoid Receptor Competitive Binding Assay
Step 1. Characterization of the Fluorescent Probe
The wavelengths for maximum excitation and emission of the fluorescent probe should first be measured. An example of such a probe is rhodamine (TAMRA)-labeled dexamethasone.
The affinity of the probe for the steroid receptor was then determined in a titration experiment. The fluorescence polarization value of the probe in assay buffer was measured on an SLM-8100 fluorometer using the excitation and emission maximum values described above. Aliquots of expression vector lysate were added and fluorescence polarization was measured after each addition until no further change in polarization value was observed. Non-linear least squares regression analysis was used to calculate the dissociation constant of the probe from the polarization values obtained for lysate binding to the probe.
Step 2. Screening for Inhibitors of Probe Binding
This assay uses fluorescence polarization (FP) to quantitate the ability of test compounds to compete with tetramethyl rhodamine (TAMRA)-labeled dexamethasone for binding to a human glucocorticoid receptor (GR) complex prepared from an insect expression system. The assay buffer was: 10 mM TES, 50 mM KCl, 20 mM Na2MoO4. 2H2O, 1.5 mM EDTA, 0.04% w/v CHAPS, 10% v/v glycerol, 1 mM dithiothreitol, pH 7.4. Test compounds were dissolved to 1 mM in neat DMSO and then further diluted to 10× assay concentration in assay buffer supplemented with 10% v/v DMSO. Test compounds were serially diluted at 10× assay concentrations in 10% DMSO-containing buffer in 96-well polypropylene plates. […] Positive controls were reaction mixtures containing no test compound; negative controls (blanks) were reaction mixtures containing 0.7 μM to 2 μM dexamethasone. […] IC50 values were determined by iterative non-linear curve fitting of the FP signal data to a 4-parameter logistic equation.
For the compound `CC(C)(CC(O)(Cc1cc2ccccc2[nH]1)C(F)(F)F)c1cccc(F)c1` (stereo not shown) [1,1,1-Trifluoro-4-(3-fluorophenyl)-2-(1H-indol-2-ylmethyl)-4-methylpentan-2-ol], the “activity in the GR binding assay” value is listed as “potent activity”.
`CC(C)(CC(O)(Cc1cc2ccncc2[nH]1)C(F)(F)F)c1cccc(F)c1` (stereo not shown) [1,1,1-Trifluoro-4-(3-fluorophenyl)-4-methyl-2-(1H-pyrrolo[2,3-c]pyridin-2-ylmethyl)pentan-2-ol]: the “activity in the GR binding assay” value is listed as “potent activity”.
For the compound `COc1ccc(F)cc1C(C)(C)CC(O)(Cn1ccnc1-c1ccccc1)C(F)(F)F` (stereo not shown) [2-(2-Phenylimidazol-1-ylmethyl)-1,1,1-trifluoro-4-(5-fluoro-2-methoxyphenyl)-4-methylpentan-2-ol], the “activity in the GR binding assay” value is on record as “potent activity”.
For the compound `COc1ccc(F)cc1C(C)(C)CC(O)(Cc1ccnc(Cl)c1)C(F)(F)F` (stereo not shown) [1,1,1-Trifluoro-4-(5-fluoro-2-methoxyphenyl)-4-methyl-2-(2-chloropyridin-4-ylmethyl)pentan-2-ol], the “activity in the GR binding assay” value was “potent activity”.
Consider `COc1c(C(C)(C)CC(O)(Cc2ccnc3ccccc23)C(F)(F)F)ccc2ccccc12` (stereo not shown) [1,1,1-Trifluoro-4-(1-methoxynaphthalen-2-yl)-4-methyl-2-quinolin-4-ylmethylpentan-2-ol], for which the “activity in the GR binding assay” value is recorded as “potent activity”.
With `CC(C)(CC(O)(Cc1cc(Cl)nc2ccccc12)C(F)(F)F)c1cc(F)ccc1O` (stereo not shown) [1,1,1-Trifluoro-4-(5-fluoro-2-hydroxyphenyl)-4-methyl-2-(2-chloroquinolin-4-ylmethyl)pentan-2-ol] the entry was “potent activity”; with `CC(C)(CC(O)(Cc1cc(Cl)nc(Cl)c1)C(F)(F)F)c1cc(F)ccc1O` (stereo not shown) [2-[3-(2,6-Dichloropyridin-4-ylmethyl)-4,4,4-trifluoro-3-hydroxy-1,1-dimethylbutyl]-4-fluorophenol], “potent activity”.
For `COc1cccc(C(C)(C)CC(O)(Cc2cc3cc(C#N)ccc3[nH]2)C(F)(F)F)c1` (stereo not shown) [2-[2-Hydroxy-4-(3-methoxyphenyl)-4-methyl-2-trifluoromethylpentyl]-1H-indole-5-carbonitrile], the “activity in the GR binding assay” value is given as “potent activity”.
With `CC(C)(CC(O)(Cc1ccnc2ccccc12)C(F)(F)F)c1ccc2ccccc2c1` (stereo not shown) [1,1,1-Trifluoro-4-methyl-4-naphthalen-2-yl-2-quinolin-4-ylmethylpentan-2-ol] the entry was “potent activity”.
With `CC(C)(CC(O)(Cc1ccnc2cc(F)ccc12)C(F)(F)F)c1ccc(F)cc1` (stereo not shown) [1,1,1-Trifluoro-4-(4-fluorophenyl)-2-(7-fluoroquinolin-4-ylmethyl)-4-methylpentan-2-ol] the entry was “potent activity”.
For the compound `COc1ccc(F)cc1C(C)(C)CC(O)(Cc1cc(Cl)nc2ccccc12)C(F)(F)F` (stereo not shown) [1,1,1-Trifluoro-4-(5-fluoro-2-methoxyphenyl)-4-methyl-2-(2-chloroquinolin-4-ylmethyl)pentan-2-ol], the “activity in the GR binding assay” value is given as “potent activity”.
Turning to `CC(C)(CC(O)(Cc1cc2cc(C#N)ccc2[nH]1)C(F)(F)F)c1cccc2c1OCC2` (stereo not shown) [2-[4-(2,3-Dihydrobenzofuran-7-yl)-2-hydroxy-4-methyl-2-trifluoromethylpentyl]-1H-indole-5-carbonitrile], the “activity in the GR binding assay” value is listed as “potent activity”.
For the compound `COC(=O)c1ccc2[nH]c(CC(O)(CC(C)(C)c3cc(F)ccc3OC)C(F)(F)F)cc2c1` (stereo not shown) [2-[4-(5-Fluoro-2-methoxyphenyl)-2-hydroxy-4-methyl-2-trifluoromethylpentyl]-1H-indole-5-carboxylic acid methyl ester], the “activity in the GR binding assay” value is “potent activity”.
The entry for `CC(C)(CC(O)(Cc1[nH]c2ccccc2c1C#N)C(F)(F)F)c1cccc(F)c1` (stereo not shown) [2-[4-(3-Fluorophenyl)-2-hydroxy-4-methyl-2-trifluoromethylpentyl]-1H-indole-3-carbonitrile] is “potent activity”.
Consider `CC(C)(CC(O)(Cc1cc2cccc(F)c2[nH]1)C(F)(F)F)c1ccccc1` (stereo not shown) [1,1,1-Trifluoro-2-(7-fluoro-1H-indol-2-ylmethyl)-4-methyl-4-phenylpentan-2-ol], for which the “activity in the GR binding assay” value is recorded as “potent activity”.
Turning to `CC(C)(CC(O)(Cc1[nH]c2ccccc2c1C#N)C(F)(F)F)c1ccc(F)cc1` (stereo not shown) [2-[4-(4-Fluorophenyl)-2-hydroxy-4-methyl-2-trifluoromethylpentyl]-1H-indole-3-carbonitrile], the “activity in the GR binding assay” value is “potent activity”.
With `CC(C)(CC(O)(Cc1ccnc2ccccc12)C(F)(F)F)c1cccc(O)c1` (stereo not shown) [3-(4,4,4-Trifluoro-3-hydroxy-1,1-dimethyl-3-quinolin-4-ylmethylbutyl)phenol] the entry was “potent activity”; with `CC(C)(CC(O)(Cc1cc2ccccc2[nH]1)C(F)(F)F)c1cccc(O)c1` (stereo not shown) [3-[4,4,4-Trifluoro-3-hydroxy-3-(1H-indol-2-ylmethyl)-1,1-dimethylbutyl]phenol], “potent activity”.
The entry for `CC(C)(CC(O)(Cc1cc2ccccc2[nH]1)C(F)(F)F)c1ccc2c(c1)CCO2` (stereo not shown) [4-(2,3-Dihydrobenzofuran-5-yl)-1,1,1-trifluoro-2-(1H-indol-2-ylmethyl)-4-methylpentan-2-ol] is “potent activity”.
With `COc1ccc(F)cc1C(C)(C)CC(O)(Cc1nc2cc(C)cc(C)c2[nH]1)C(F)(F)F` (stereo not shown) [2-(5,7-Dimethyl-1H-benzoimidazol-2-ylmethyl)-1,1,1-trifluoro-4-(5-fluoro-2-methoxyphenyl)-4-methylpentan-2-ol] the entry was “potent activity”; with `CCc1cccc(C(C)(C)CC(O)(Cc2ccnc3ccccc23)C(F)(F)F)c1O` (stereo not shown) [2-Ethyl-6-(4,4,4-trifluoro-3-hydroxy-1,1-dimethyl-3-quinolin-4-ylmethylbutyl)phenol], “potent activity”.
On to `CC(C)(CC(O)(Cn1cc(C#N)c2ccccc21)C(F)(F)F)c1cccc2c1OCC2` (stereo not shown) [1-[4-(2,3-Dihydrobenzofuran-7-yl)-2-hydroxy-4-methyl-2-trifluoromethylpentyl]-1H-indole-3-carbonitrile], for which the “activity in the GR binding assay” value is reported as “potent activity”.
The entry for `CC(C)(CC(O)(Cc1ccnc2ccccc12)C(F)(F)F)c1ccsc1` (stereo not shown) [1,1,1-Trifluoro-4-methyl-2-quinolin-4-ylmethyl-4-thiophen-3-ylpentan-2-ol] is “potent activity”; for `CC(C)(CC(O)(Cc1ccnc2ccccc12)C(F)(F)F)c1ccc2c(c1)CCO2` (stereo not shown) [4-(2,3-Dihydrobenzofuran-5-yl)-1,1,1-trifluoro-4-methyl-2-quinolin-4-ylmethylpentan-2-ol] it is “potent activity”.
Regarding `CC(C)(CC(O)(Cc1[nH]c2ccccc2c1C#N)C(F)(F)F)c1ccccc1` (stereo not shown) [2-(2-Hydroxy-4-methyl-4-phenyl-2-trifluoromethylpentyl)-1H-indole-3-carbonitrile], the “activity in the GR binding assay” value is listed as “potent activity”.
The entry for `COc1ccc(F)cc1C(C)(C)CC(O)(CF)Cc1cc2ccccc2[nH]1` (stereo not shown) [4-(5-Fluoro-2-methoxyphenyl)-2-fluoromethyl-1-(1H-indol-2-yl)-4-methylpentan-2-ol] is “potent activity”.
The entry for `CCc1cccc(C(C)(C)CC(O)(Cc2cc3ccccc3[nH]2)C(F)(F)F)c1O` (stereo not shown) [2-Ethyl-6-[4,4,4-trifluoro-3-hydroxy-3-(1H-indol-2-ylmethyl)-1,1-dimethylbutyl]phenol] is “potent activity”; for `COc1ccc(F)cc1C(C)(C)CC(O)(Cc1nc2ccccc2[nH]1)C(C)(C)C` (stereo not shown) [5-(5-Fluoro-2-methoxyphenyl)-3-(benzimidazol-2-ylmethyl)-2,2,5-trimethylhexan-3-ol] it is “potent activity”.
